Measurements from PubChem BioAssay AID330 (DTP/NCI, 2004).
Toxic doses and inconclusive results are not listed. The calls were made as follows: active = survival T/C of 150% or more; inactive = T/C below 125% in these data.

System: P388 leukemia ip, CD2F1 mice, survival T/C
Test: NCI In Vivo Anticancer Drug Screen. Data for tumor model P388 Leukemia (intraperitoneal) in CD2F1 (CDF1) mice
Details: endpoint: median survival time, higher = longer survival
Procedure, shortened: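 Mice carrying the transplanted tumor received test compound or vehicle. Survival was recorded in each group, and the value is the treated-group measurement divided by that of the vehicle-treated control group.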

[1] = dose: 12.5 mg/kg/injection, schedule: Q01DX009 (ip), vehicle: saline with Tween-80
[2] = dose: 50.0 mg/kg/injection, schedule: Q01DX005 (ip), vehicle: saline with Tween-80
[3] = dose: 100.0 mg/kg/injection, schedule: Q01DX005 (ip), vehicle: saline with Tween-80
[4] = dose: 200.0 mg/kg/injection, schedule: Q01DX005 (ip), vehicle: saline with Tween-80
[5] = dose: 60.0 mg/kg/injection, schedule: Q01DX005 (ip), vehicle: saline with Tween-80
[6] = dose: 120.0 mg/kg/injection, schedule: Q01DX005 (ip), vehicle: saline with Tween-80
[7] = dose: 240.0 mg/kg/injection, schedule: Q01DX005 (ip), vehicle: saline with Tween-80
[8] = dose: 6.25 mg/kg/injection, schedule: Q01DX005 (ip), vehicle: Klucel (hydroxypropylcellulose) (HPC)
[9] = dose: 12.5 mg/kg/injection, schedule: Q01DX005 (ip), vehicle: Klucel (hydroxypropylcellulose) (HPC)
[10] = dose: 25.0 mg/kg/injection, schedule: Q01DX005 (ip), vehicle: Klucel (hydroxypropylcellulose) (HPC)
[11] = dose: 50.0 mg/kg/injection, schedule: Q01DX005 (ip), vehicle: Klucel (hydroxypropylcellulose) (HPC)
[12] = dose: 60.0 mg/kg/injection, schedule: Q01DX005 (ip), vehicle: Klucel (hydroxypropylcellulose) (HPC)
[13] = dose: 120.0 mg/kg/injection, schedule: Q01DX005 (ip), vehicle: Klucel (hydroxypropylcellulose) (HPC)
[14] = dose: 240.0 mg/kg/injection, schedule: Q01DX005 (ip), vehicle: Klucel (hydroxypropylcellulose) (HPC)

Measured: T/C

Oc1ccc(O)cc1
inactive: [1] 106 % of control | dose: 25.0 mg/kg/injection, schedule: Q01DX009 (ip), vehicle: saline with Tween-80 113 % of control | dose: 50.0 mg/kg/injection, schedule: Q01DX009 (ip), vehicle: saline with Tween-80 122 % of control
active: dose: 100.0 mg/kg/injection, schedule: Q01DX009 (ip), vehicle: saline with Tween-80 150 % of control

OCC(O)C1OC(c2ccccc2)OC(CO)C1O (stereo not given)
inactive: [2] 100 % of control | [3] 109 % of control | [4] 102 % of control

Clc1cccc2nn3ccnc3n12
inactive: dose: 50.0 mg/kg/injection, schedule: Q01DX001 (ip), vehicle: Klucel (hydroxypropylcellulose) (HPC) 105 % of control | dose: 100.0 mg/kg/injection, schedule: Q01DX001 (ip), vehicle: Klucel (hydroxypropylcellulose) (HPC) 99 % of control | dose: 200.0 mg/kg/injection, schedule: Q01DX001 (ip), vehicle: Klucel (hydroxypropylcellulose) (HPC) 102 % of control

CC1(c2ccccc2)Nc2ccccc2C1=Nc1ccccc1 (stereo not given)
inactive: dose: 50.0 mg/kg/injection, schedule: Q04DX003 (ip), vehicle: saline with Tween-80 99 % of control | dose: 100.0 mg/kg/injection, schedule: Q04DX003 (ip), vehicle: saline with Tween-80 96 % of control | dose: 200.0 mg/kg/injection, schedule: Q04DX003 (ip), vehicle: saline with Tween-80 100 % of control

Cn1cc(/C=C/C(=O)c2ccccc2[N+](=O)[O-])c2ccccc21
inactive: [5] 95 % of control | [6] 89 % of control | [7] 89 % of control

COc1ccccc1C1NC(c2ccccc2OC)C2CCCC1C2 (stereo not given)
inactive: dose: 100.0 mg/kg/injection, schedule: Q04DX003 (ip), vehicle: saline 91 % of control | dose: 200.0 mg/kg/injection, schedule: Q04DX003 (ip), vehicle: saline 90 % of control | dose: 400.0 mg/kg/injection, schedule: Q04DX003 (ip), vehicle: saline 88 % of control

CC1(C)CCC2(C(=O)OC3OC(CO)C(O)C(O)C3O)CCC3(C)C(=CCC4C5(C)CCC(OC6OC(CO)C(O)C(O)C6O)C(C)(C)C5CCC43C)C2C1 (stereo not given)
inactive: dose: 3.12 mg/kg/injection, schedule: Q01DX005 (ip), vehicle: Klucel (hydroxypropylcellulose) (HPC) 98 % of control | [8] 104 % of control | [9] 104 % of control | [10] 95 % of control | [11] 102 % of control

CNc1nc2ncnc(NC)c2[nH]1
inactive: [2] 99 % of control | [3] 92 % of control | [4] 90 % of control

Cc1cc(Cl)ccc1NC(=O)N1CCCCC1
inactive: [12] 96 % of control | [13] 96 % of control | [14] 93 % of control

CC1(C)OC2OC(COC(=O)c3ccccc3)C(=O)C2O1 (stereo not given)
inactive: dose: 3.13 mg/kg/injection, schedule: Q01DX009 (ip), vehicle: saline with Tween-80 95 % of control | dose: 6.25 mg/kg/injection, schedule: Q01DX009 (ip), vehicle: saline with Tween-80 93 % of control | [1] 89 % of control

Cc1cc(C)c2c(c1)sc1nncn12
inactive: dose: 50.0 mg/kg/injection, schedule: Q01DX009 (ip), vehicle: Klucel (hydroxypropylcellulose) (HPC) 118 % of control | dose: 100.0 mg/kg/injection, schedule: Q01DX009 (ip), vehicle: Klucel (hydroxypropylcellulose) (HPC) 94 % of control | dose: 200.0 mg/kg/injection, schedule: Q01DX009 (ip), vehicle: Klucel (hydroxypropylcellulose) (HPC) 92 % of control

Cc1ccc(-c2nnc3cc(C)n4nnnc4n23)cc1
inactive: [8] 101 % of control | [9] 108 % of control | [10] 108 % of control | [11] 101 % of control | dose: 100.0 mg/kg/injection, schedule: Q01DX005 (ip), vehicle: Klucel (hydroxypropylcellulose) (HPC) 105 % of control | dose: 200.0 mg/kg/injection, schedule: Q01DX005 (ip), vehicle: Klucel (hydroxypropylcellulose) (HPC) 107 % of control

COC(=O)c1cn(NS(=O)(=O)c2ccc(OC)cc2)cc1C(=O)OC
inactive: [5] 96 % of control | [6] 101 % of control | [7] 104 % of control

c1ccc(Cc2cccc[n+]2C(c2ccccc2)c2ccccc2)cc1
inactive: dose: 6.25 mg/kg/injection, schedule: Q01DX009 (ip), vehicle: Klucel (hydroxypropylcellulose) (HPC) 105 % of control | dose: 12.5 mg/kg/injection, schedule: Q01DX009 (ip), vehicle: Klucel (hydroxypropylcellulose) (HPC) 87 % of control

Oc1cc2c(cc1C(c1ccc(F)cc1)N1CCCC1)OCO2 (stereo not given)
inactive: [12] 109 % of control | [13] 111 % of control | [14] 111 % of control
